Consider 25 compounds from patent publication US9376418B2, “Substituted pyridine spleen tyrosine kinase (SYK) inhibitors” (Merck Sharp & Dohme Corp., priority 2012, dated 2016).

The test addresses T1, recombinant human GST-SYK (Homo sapiens, UniProt P43405).
T1 construct: purchased Carna Biosciences 08-176
Description: Homogeneous Time-Resolved Fluorescence (HTRF) assay for the recombinant human Syk enzyme. Type of test: biochemical. To be noted: HTRF assay, recombinant human GST-SYK; IC50 given as class symbols; read-out: rhSYK Activity. The gist of the method:
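Phosphorylation of a biotinylated Syk substrate peptide (250 nM) was run for 45 min at room temperature with 25 μM ATP and 5 mM Mg. It followed a 10-min preincubation of GST-hSYK ([…]) with compound in 15 mM Tris-HCl pH 7.5, 2 mM DTT. Product was detected by time-resolved fluorescence using a europium anti-phosphotyrosine antibody plus SA-APC in EDTA-containing quench buffer.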
(In general: Time-resolved FRET reads energy transfer from a long-lived donor to a nearby acceptor.)
With `Cc1cc(Nc2nccc(C(F)(F)F)n2)cc(-c2ccc(N[C@H](CC(C)C)C(=O)O)nc2)c1` [Example 7.70, N-[5-(3-methyl-5-{[4-(trifluoromethyl)pyrimidin-2-yl]amino}phenyl)pyridin-2-yl]-D-leucine], the IC50 is less than 100 nM.
For the compound `CC(=O)NCCCNc1cc(-c2cc(C)cc(Nc3nccc(C(F)(F)F)n3)c2)ccn1` [Example 15.80, N-(3-{[4-(3-methyl-5-{[4-(trifluoromethyl)pyrimidin-2-yl]amino}phenyl)pyridin-2-yl]amino}propyl)acetamide], the IC50 is 100 to 1000 nM.
Next, `Cc1cc(Nc2nccc(C(F)(F)F)n2)cc(-c2ccnc(N3CCCC4(CCOC4=O)C3)c2)c1` (stereo not shown) [Example 15.30, 7-[4-(3-methyl-5-{[4-(trifluoromethyl)pyrimidin-2-yl]amino}phenyl)pyridin-2-yl]-2-oxa-7-azaspiro[4.5]decan-1-one]: less than 100 nM; `Cc1cc(Nc2nccc(C(F)(F)F)n2)cc(-c2ccc(N3CC(C)NC(C)C3)nc2)c1` (stereo not shown) [Example 7.58, N-{3-[6-(3,5-dimethylpiperazin-1-yl)pyridin-3-yl]-5-methylphenyl}-4-(trifluoromethyl)pyrimidin-2-amine]: less than 100 nM; `CCC(C)(Nc1ccc(-c2cc(C)cc(Nc3nccc(C(F)(F)F)n3)c2)cn1)C(=O)O` (stereo not shown) [Example 18.6]: less than 100 nM.
As to `Cc1cc(Nc2nccc(C(F)(F)F)n2)cc(-c2ccc(N[C@@H](Cc3ccccc3)C(=O)O)nc2)c1` [Example 7.155, N-[5-(3-methyl-5-{[4-(trifluoromethyl)pyrimidin-2-yl]amino}phenyl)pyridin-2-yl]-L-phenylalanine], the IC50 is less than 100 nM.
As for `COc1cc(-c2cccc(Nc3nccc(C(F)(F)F)n3)c2)ccn1` [Example 2.122, N-[3-(2-methoxypyridin-4-yl)phenyl]-4-(trifluoromethyl)pyrimidin-2-amine], the figure is 100 to 1000 nM; as for `Cc1cc(Nc2nccc(C(F)(F)F)n2)cc(-c2ccc(C(=O)NCC3CCC(=O)N3)nc2)c1` (stereo not shown) [Example 16.30, 5-(3-methyl-5-{[4-(trifluoromethyl)pyrimidin-2-yl]amino}phenyl)-N-[(5-oxopyrrolidin-2-yl)methyl]pyridine-2-carboxamide], less than 100 nM.
As for `Cc1cc(Nc2nccc(C(F)(F)F)n2)cc(-c2ccc(NC(C)(C)CO)nc2)c1` [Example 7.35, 2-methyl-2-{[5-(3-methyl-5-{[4-(trifluoromethyl)pyrimidin-2-yl]amino}phenyl)pyridin-2-yl]amino}propan-1-ol], the figure is 100 to 1000 nM.
As for `Cc1cc(Nc2nccc(C(F)(F)F)n2)cc(-c2ccc(NCc3cnn(C)c3)nc2)c1` [Example 7.20, N-[3-methyl-5-(6-{[(1-methyl-1H-pyrazol-4-yl)methyl]amino}pyridin-3-yl)phenyl]-4-(trifluoromethyl)pyrimidin-2-amine], the figure is 100 to 1000 nM; as for `Cc1cc(Nc2nccc(C(F)(F)F)n2)cc(-c2cncc(C(=O)O)c2)c1` [Example 2.69, 5-(3-methyl-5-{[4-(trifluoromethyl)pyrimidin-2-yl]amino}phenyl)pyridine-3-carboxylic acid], less than 100 nM.
For `Cc1cc(Nc2ncc(Cl)c(C(F)(F)F)n2)cc(-c2cccnc2)c1` [Example 20.3], the IC50 is 100 to 1000 nM.
With `CNC(=O)Nc1cc(Nc2nccc(C(F)(F)F)n2)cc(-c2cccnc2)c1` [Example 6.1, 1-Methyl-3-[3-(pyridin-3-yl)-5-{[4-(trifluoromethyl)pyrimidin-2-yl]amino}phenyl]urea], the IC50 is less than 100 nM.
As to `Cc1cc(Nc2nccc(C(F)(F)F)n2)cc(-c2ccnc(C3(O)COC(C)(C)OC3)c2)c1` [Example 9.62, 2,2-dimethyl-5-[4-(3-methyl-5-{[4-(trifluoromethyl)pyrimidin-2-yl]amino}phenyl)pyridin-2-yl]-1,3-dioxan-5-ol], the IC50 fell in the range of 100 to 1000 nM.
In the case of `COC(=O)C1CCC(O)(c2ccc(-c3cc(C)cc(Nc4nccc(C(F)(F)F)n4)c3)cn2)CC1(C)C` (stereo not shown) [Example 9.41, methyl 4-hydroxy-2,2-dimethyl-4-[5-(3-methyl-5-{[4-(trifluoromethyl)pyrimidin-2-yl]amino}phenyl)pyridin-2-yl]cyclohexanecarboxylate], the IC50 was in the range of 100 to 1000 nM.
Next, `O=C(O)CCc1cc(-c2cccc(Nc3nccc(C(F)(F)F)n3)c2)ccn1` [Example 2.129, 3-[4-(3-{[4-(trifluoromethyl)pyrimidin-2-yl]amino}phenyl)pyridin-2-yl]propanoic acid]: less than 100 nM; `COc1ccc(-c2cccc(Nc3nccc(C(F)(F)F)n3)c2)cn1` [Example 2.41, N-[3-(6-methoxypyridin-3-yl)phenyl]-4-(trifluoromethyl)pyrimidin-2-amine]: 100 to 1000 nM.
On to `Cc1cc(Nc2nccc(C(F)(F)F)n2)cc(-c2ccc(C(=O)N3CC[C@H](CO)C3)nc2)c1` [Example 16.43, [(3S)-1-{[5-(3-methyl-5-{[4-(trifluoromethyl)pyrimidin-2-yl]amino}phenyl)pyridin-2-yl]carbonyl}pyrrolidin-3-yl]methanol], for which the IC50 was less than 100 nM.
Next, `CC(=O)NCCN(C)c1cc(-c2cc(C)cc(Nc3nccc(C(F)(F)F)n3)c2)ccn1` [Example 15.65, N-(2-{methyl[4-(3-methyl-5-{[4-(trifluoromethyl)pyrimidin-2-yl]amino}phenyl)pyridin-2-yl]amino}ethyl)acetamide]: 100 to 1000 nM.
Next, `COc1ccnc(Nc2cc(C)cc(-c3cc(CCC(=O)O)ccn3)c2)n1` [Example 2.21, 3-(2-{3-[(4-methoxypyrimidin-2-yl)amino]-5-methylphenyl}pyridin-4-yl)propanoic acid]: less than 100 nM; `CCN1CCN(c2ccc(-c3cc(C)cc(Nc4nccc(C(F)(F)F)n4)c3)cn2)CC1` [Example 7.49, N-{3-[6-(4-ethylpiperazin-1-yl)pyridin-3-yl]-5-methylphenyl}-4-(trifluoromethyl)pyrimidin-2-amine]: 100 to 1000 nM; `Cc1cc(Nc2nccc(C(F)(F)F)n2)cc(-c2ccc(C3(O)CCC(C(=O)O)C(C)(C)C3)nc2)c1` (single isomer, unassigned) [Example 9.8, (1S,4R or 1R,4S)-4-hydroxy-2,2-dimethyl-4-[5-(3-methyl-5-{[4-(trifluoromethyl)pyrimidin-2-yl]amino}phenyl)pyridin-2-yl]cyclohexanecarboxylic acid]: less than 100 nM.
Next, `CNC(=O)C1CCN(c2ccc(-c3cc(C)cc(Nc4nccc(C(F)(F)F)n4)c3)cn2)CC1` [Example 7.42, N-methyl-1-[5-(3-methyl-5-{[4-(trifluoromethyl)pyrimidin-2-yl]amino}phenyl)pyridin-2-yl]piperidine-4-carboxamide]: 100 to 1000 nM.
Turning to `Cc1cc(Nc2nccc(C(F)(F)F)n2)cc(-c2ccc(OC3CCC(C(=O)O)CC3)nc2)c1` (stereo not shown) [Example 2.111, 4-{[5-(3-methyl-5-{[4-(trifluoromethyl)pyrimidin-2-yl]amino}phenyl)pyridin-2-yl]oxy}cyclohexanecarboxylic acid], the IC50 was less than 100 nM.
Next, `CCNC(=O)Nc1cc(Nc2nccc(C(F)(F)F)n2)cc(-c2cccnc2)c1` [Example 6.3, 1-ethyl-3-(3-pyridin-3-yl-5-{[4-(trifluoromethyl)pyrimidin-2-yl]amino}phenyl)urea]: less than 100 nM.
